Experimental data taken from patent publication US20250092065A1, “2-(INDAZOL-5-YL)-6-(PIPERIDIN-4-YL)-1,7-NAPHTHYRIDINE DERIVATIVES AND RELATED COMPOUNDS AS MODULATORS FOR SPLICING NUCLEIC ACIDS AND FOR THE TREATMENT OF PROLIFERATIVE DISEASES” (REMIX THERAPEUTICS INC., priority 2022, published 2025).
pIC50: −log10 of the molar value. Like-named read-outs stand apart in the source and are kept apart here.

Columns and labels:
SMN2 mRNA = assay: RT-qPCR splicing assay, SMN2 mRNA; type: cell-based, human; conditions: canonical junction qPCR panel, Table 4, read-out: SMN2 IC50 (decrease in CJ mRNA levels)
Protocol: (§1) Compounds described herein were used to modulate RNA transcript abundance in cells. The expression of a target mRNA was measured by detecting the formation of an exon-exon junction in the canonical transcript (CJ). A compound mediated exon-inclusion event was detected by observing an increase in formation of a new junction with an alternative exon (AJ). Real-time qPCR assays were used to detect these splicing switches and interrogate the potency of various compounds towards different target genes. A high-throughput real time quantitative PCR (RT-qPCR) assay was developed to measure these two isoforms of the mRNA (CJ and AJ) for exemplary genes, such as HTT, SMN2, and MYB, together with a control housekeeping gene, GAPDH or GUSB or PPIA, used for normalization. Briefly, the A673 or K562 cell line was treated with various compounds described herein (e.g., compounds of Formula (I)). After treatment, the levels of the HTT, MYB, or SMN2 mRNA targets were determined from each sample of cell lysate by cDNA synthesis followed by qPCR.
(§2) The A673 cell line was cultured in DMEM with 10% FBS. Cells were diluted with full growth media and plated in a 96-well plate (15,000 cells in 100 ul media per well). The plate was incubated at 37° C. with 5% CO2 for 24 hours to allow cells to adhere. An 11-point 3-fold serial dilution of the compounds was made in DMSO then diluted in media in an intermediate plate. Compounds were transferred from the intermediate plate to the cell plate with the top dose at a final concentration of 10 uM in the well. Final DMSO concentration was kept at or below 0.25%. The cell plate was returned to the incubator at 37° C. with 5% CO2 for an additional 24 hours.
(§3) The K562 cell line was cultured in IMDM with 10% FBS. For K562, cells were diluted with full growth media and plated in either a 96-well plate (50,000 cells in 50 uL media per well) or a 384-well plate (8,000-40,000 cells in 45 uL media per well). An 11-point 3-fold serial dilution of the compounds were made in DMSO then diluted in media in an intermediate plate. Compound was transferred from the intermediate plate to the cell plate with the top dose at a final concentration of 10 uM in the well. Final DMSO concentration was kept at or below 0.25%. Final volume was 100 uL for 96-well plate and 50 uL for 384-well plate. The cell plate was then placed in an incubator at 37° C. with 5% CO2 for 24 hours.
(§4) The cells were then gently washed with 50 uL-100 uL cold PBS before proceeding to addition of lysis buffer. 30 uL-50 μL of room temperature lysis buffer with DNAse I (and optionally RNAsin) was added to each well. Cells were shaken/mixed thoroughly at room temperature for 5-10 minutes for lysis to take place and then 3 uL-5 μL of room temperature stop solution was added and wells were shaken/mixed again. After 2-5 minutes, the cell lysate plate was transferred to ice for RT-qPCR reaction setup. The lysates could also be frozen at −80° C. for later use.
(§5) In some cases, a direct lysis buffer was used. An appropriate volume of 3× lysis buffer (10 mM Tris, 150 mM NaCl, 1.5%-2.5% Igepal and 0.1-1 U/uL RNAsin, pH 7.4) was directly added to either K562 or A673 cells in media and mixed by pipetting 3 times. The plates were then incubated at room temperature with shaking/rocking for 20-50 minutes to allow for lysis to take place. After this time, the cell lysate plate was transferred to ice to set up for the RT-qPCR reactions. The lysates could also be frozen at −80° C. for later use.
(§6) To set up 10 uL RT-qPCR reactions, cell lysates were transferred to 384-well qPCR plates containing the master mix according to the table below. The plates were sealed, gently vortexed, and spun down before the run. The volumes were adjusted accordingly in some instances where the reaction was carried in 20 μL. The table below summarizes the components of the RT-qPCR reactions:
(§7) The RT-qPCR reaction was performed using a QuantStudio (ThermoFisher) under the following fast cycling conditions. […]

K562 cells = assay: Cell Titer Glo 2.0 cell viability (toxicity) assay, K562; conditions: 500 cells/well, 72 hours
Protocol: Compounds described herein were screened for toxicity in K562 (human chronic myelogenous leukemia) and SH-SY5Y (human neuroblastoma) cells using a Cell Titer Glo 2.0 assay.
Cells were plated at 500 cells/well (K562 cells) in 45 μL of IMDM supplemented with 10% FBS in a 384-well opaque plate. Wells containing only medium were used as a blank control. Test compounds (e.g., compounds of Formula (I) or (II)) were first serially diluted in DMSO then diluted 1:100 with EIDM+10% FBS. The final concentration of DMSO was 0.1% in each well. The cells were incubated for 72 hours at 37° C. and 5% CO2 before assaying with Cell Titer Glo 2.0 reagent.

HTT mRNA = assay: RT-qPCR splicing assay, HTT mRNA canonical (CJ) and alternative (AJ) junction; type: cell-based, human
Protocol: as §1, §2, §3, §4, §5, §6, §7

MYB mRNA = assay: RT-qPCR splicing assay, MYB mRNA canonical (CJ) and alternative (AJ) junction; type: cell-based, human
Protocol: as §1, §2, §3, §4, §5, §6, §7

[1] = Homo sapiens, RT-qPCR, HTT alternative junction mRNA increase, read-out: HTT AJ (increase in alternative junction mRNA, AC50)
[2] = Homo sapiens, RT-qPCR, HTT canonical junction mRNA decrease, read-out: HTT CJ (decrease in canonical junction mRNA, IC50)
[3] = Homo sapiens, canonical junction qPCR panel, Table 4, read-out: HTT IC50 (decrease in CJ mRNA levels)
[4] = Homo sapiens, RT-qPCR, MYB alternative junction mRNA increase, read-out: MYB AJ (increase in alternative junction mRNA, AC50)
[5] = Homo sapiens, RT-qPCR, MYB canonical junction mRNA decrease, read-out: MYB CJ (decrease in canonical junction mRNA, IC50)
[6] = Homo sapiens, canonical junction qPCR panel, Table 4, read-out: MYB IC50 (decrease in CJ mRNA levels)

| Compound | pIC50 (SMN2 mRNA; Homo sapiens) | Effect of Exemplary Compounds on Cell Viability, K562 (K562 cells) | AC50 (HTT mRNA; [1]) [µM] | pIC50 (HTT mRNA; [2]) | pIC50 (HTT mRNA; [3]) | AC50 (MYB mRNA; [4]) [µM] | pIC50 (MYB mRNA; [5]) | pIC50 (MYB mRNA; [6]) | AC50 (HTT mRNA; Homo sapiens, HTT alternative junction mRNA, RT-qPCR, read-out: HTT AJ (increase in AJ mRNA, AC50)) [µM] | pIC50 (HTT mRNA; Homo sapiens, HTT canonical junction mRNA, RT-qPCR, read-out: HTT CJ (decrease in CJ mRNA levels, IC50)) | AC50 (MYB mRNA; Homo sapiens, MYB alternative junction mRNA, RT-qPCR, read-out: MYB AJ (increase in AJ mRNA, AC50)) [µM] | pIC50 (MYB mRNA; Homo sapiens, MYB canonical junction mRNA, RT-qPCR, read-out: MYB CJ (decrease in CJ mRNA levels, IC50)) | pIC50 (SMN2 mRNA) | AC50 (HTT mRNA; HTT alternative junction mRNA, RT-qPCR, read-out: HTT AJ (increase in AJ mRNA, AC50)) [µM] | pIC50 (HTT mRNA; HTT canonical junction mRNA, RT-qPCR, read-out: HTT CJ (decrease in CJ mRNA levels, IC50)) | pIC50 (HTT mRNA; canonical junction qPCR panel, Table 4, read-out: HTT IC50 (decrease in CJ mRNA levels)) | AC50 (MYB mRNA; MYB alternative junction mRNA, RT-qPCR, read-out: MYB AJ (increase in AJ mRNA, AC50)) [µM] | pIC50 (MYB mRNA; MYB canonical junction mRNA, RT-qPCR, read-out: MYB CJ (decrease in CJ mRNA levels, IC50)) | pIC50 (MYB mRNA; canonical junction qPCR panel, Table 4, read-out: MYB IC50 (decrease in CJ mRNA levels)) |
| --- | --- | --- | --- | --- | --- | --- | --- | --- | --- | --- | --- | --- | --- | --- | --- | --- | --- | --- | --- |
| C[C@H]1CN(c2ccc3nc(-c4cc(F)c5nc(CO)cn5c4)ncc3c2)C[C@H](C)N1 (single isomer, unassigned) [Compound 828] | > 7.00 | B (B represents 100-1000 nM) | 1 to 10 | 6.00 to 7.00 | 6.00 to 7.00 | < 0.1 | > 7.00 | > 7.00 | – | – | – | – | – | – | – | – | – | – | – |
| Cn1cc2cc(-c3ccc4nc(N5CCN6CCCC6C5)ccc4n3)c(O)cc2n1 (stereo not shown) [Compound 134] | > 7.00 | C (C represents 1000-9999 nM) | – | – | 5.00 to 6.00 | – | – | 6.00 to 7.00 | 1 to 10 | 5.00 to 6.00 | 0.1 to 1 | 6.00 to 7.00 | – | – | – | – | – | – | – |
| Cc1c(O)c(-c2ccc3nc(N4CCC(NC(C)(C)C)C4)ccc3n2)cc2cn(C)nc12 (stereo not shown) [Compound 275] | – | – | – | – | – | – | – | – | – | – | – | – | > 7.00 | < 0.1 | > 7.00 | > 7.00 | < 0.1 | > 7.00 | > 7.00 |
| Cc1cn2cc(-c3ncc4cc(N5C[C@H](C)N[C@@H](C)C5)ccc4n3)ccc2n1 [Compound 827] | > 7.00 | B (B represents 100-1000 nM) | 1 to 10 | 5.00 to 6.00 | 5.00 to 6.00 | 0.1 to 1 | 6.00 to 7.00 | 6.00 to 7.00 | – | – | – | – | – | – | – | – | – | – | – |
| C[C@H]1CN(c2ccc3nc(-c4cc(F)c5nc(CF)cn5c4)ncc3c2)C[C@H](C)N1 [Compound 829, 6-[(3S,5S)-3,5-dimethylpiperazin-1-yl]-2-[8-fluoro-2-(fluoromethyl)imidazo[1,2-a]pyridin-6-yl]quinazoline] | > 7.00 | B (B represents 100-1000 nM) | 0.1 to 1 | 6.00 to 7.00 | 6.00 to 7.00 | 0.1 to 1 | > 7.00 | > 7.00 | – | – | – | – | – | – | – | – | – | – | – |
| COc1cc(-c2ncc3cc(N4C[C@@H](C)N[C@@H](C)C4)ccc3n2)cn2cc(C)nc12 [Compound 830] | > 7.00 | B (B represents 100-1000 nM) | > 10 | 5.00 to 6.00 | 5.00 to 6.00 | 0.1 to 1 | 6.00 to 7.00 | 6.00 to 7.00 | – | – | – | – | – | – | – | – | – | – | – |
| Cc1cn2cc(-c3ncc4cc(N5C[C@@H](C)N[C@@H](C)C5)ccc4n3)cc(C#N)c2n1 [Compound 831] | > 7.00 | B (B represents 100-1000 nM) | 1 to 10 | 6.00 to 7.00 | 6.00 to 7.00 | < 0.1 | > 7.00 | > 7.00 | – | – | – | – | – | – | – | – | – | – | – |
| Cc1cn2cc(-c3ncc4cc(N5C[C@@H](C)N[C@@H](C)C5)ccc4n3)ccc2n1 [Compound 832] | > 7.00 | C (C represents 1000-9999 nM) | > 10 | < 5.00 | < 5.00 | 1 to 10 | 6.00 to 7.00 | 6.00 to 7.00 | – | – | – | – | – | – | – | – | – | – | – |
| C[C@@H]1CN(c2ccc3nc(-c4cc(F)c5nncn5c4)ncc3c2)C[C@H](C)N1 [Compound 833] | 6.00 to 7.00 | C (C represents 1000-9999 nM) | 1 to 10 | 5.00 to 6.00 | 5.00 to 6.00 | 1 to 10 | 5.00 to 6.00 | 5.00 to 6.00 | – | – | – | – | – | – | – | – | – | – | – |
| C[C@@H]1CN(c2ccc3nc(-c4cc(F)c5nc(CO)cn5c4)ncc3c2)C[C@H](C)N1 [Compound 834, (6-{6-[(3R,5S)-3,5-dimethylpiperazin-1-yl]quinazolin-2-yl}-8-fluoroimidazo[1,2-a]pyridin-2-yl)methanol] | > 7.00 | C (C represents 1000-9999 nM) | 1 to 10 | 5.00 to 6.00 | 5.00 to 6.00 | 0.1 to 1 | 6.00 to 7.00 | 6.00 to 7.00 | – | – | – | – | – | – | – | – | – | – | – |
| Cc1cn2cc(-c3ncc4cc(N5C[C@@H](C)N[C@@H](C)C5)ccc4n3)cc(Cl)c2n1 [Compound 896] | – | B (B represents 100-1000 nM) | – | – | – | – | – | – | – | – | – | – | – | – | – | – | – | – | – |
| Cn1cc2cc(-c3ncc4cc(N5CC[C@H](NC(C)(C)C)C5)ccc4n3)c(O)c(F)c2n1 [Compound 929] | > 7.00 | – | 0.1 to 1 | 5.00 to 6.00 | 5.00 to 6.00 | < 0.1 | > 7.00 | > 7.00 | – | – | – | – | – | – | – | – | – | – | – |
| Cn1cc2cc(-c3ncc4cc(N5CC[C@@H](NC(C)(C)C)C5)ccc4n3)c(O)c(F)c2n1 [Compound 930] | > 7.00 | – | > 10 | 5.00 to 6.00 | 5.00 to 6.00 | 0.1 to 1 | 6.00 to 7.00 | 6.00 to 7.00 | – | – | – | – | – | – | – | – | – | – | – |
